Results: US9566290B2, “Boron-containing small molecules” (Anacor Pharmaceuticals, Inc., priority 2005, dated 2017)
In brackets after ≈: the same amount, converted by molar mass. Entries after “also recorded” stand apart in the source; their conditions may differ. Read-outs that look alike come from different tables or passages of the source.

Key:
19 test strains of fungi = assay: Antifungal MIC, microbroth dilution (NCCLS); type: cell-based; details: MIC = over 90% reduction of growth, read-out: MIC values against all fungi tested
Excerpt: (C10) is a novel compound in development for use as a topical antifungal treatment. The purpose of this study was to determine the minimum inhibitory concentration (MIC) for (C10) against 19 test strains of fungi including: Aspergillus fumigatus (A. fumigatus), Candida Albicans (C. albicans, both fluconazole sensitive and resistant strains), Candida glabrata (C. glabrata), Candida krusei (C. krusei), Cryptococcus neoformans (C. neoformans), Candida parapsilosis (C. parapsilosis), Candida tropicalis (C. tropicalis), Epidermophyton floccosum (E. floccosum), Fusarium solani (F. solani), Malassezia furfur (M. furfur), Malassezia pachydermatis (M. pachydermatis), Malassezia sympodialis (M. sympodialis), Microsporum audouinii (M. audouinii), Microsporum canis (M. canis), Microsporum gypseum (M. gypseum), Trichophyton mentagrophytes (T. mentagrophytes), Trichophyton rubrum (T. rubrum), Trichophyton tonsurans (T. tonsurans). Fungal growth was evaluated after exposure to different concentrations of (C10). In addition, the MIC for (C10) against T. rubrum in the presence of 5% keratin powder and the minimum fungicidal concentration (MFC) for (C10) against T. rubrum and T. mentagrophytes were also determined. Ciclopirox and/or terbinafine and/or fluconazole and/or itraconazole were used as comparators and tested in a similar manner. These studies were conducted at NAEJA Pharmaceutical, Inc. […]

[1] = Solubility in pre-saturated n-octanol or water, visual inspection; type: physicochemical
Description: N-Octanol and water were mutually pre-saturated by vigorously stirring a mixture of both solvents for up to 12 h and the mixture was allowed to separate. Solubility in each solvent was determined by adding 10 μL of 20, 40, 200, 1000 and 5000 μg/mL of C10 in DMSO to the pre-saturated n-octanol or water. After the sample was vortexed for 10 sec, the sample was centrifuged for 10 min at ca. 3000 rpm. A visual inspection was made to determine if the sample was clear or if a pellet had formed on the bottom of the tube.

[2] = Stability at room temperature in water and octanol; type: physicochemical
Description: C10 (10 μL of 5000 μg/mL) was added both to 0.5 mL n-octanol and 0.5 mL water in triplicate. Samples were mixed. At 0 h and 24 h samples were stored at ca. −20° C. Twenty five L of sample was used for analysis.
For the octanol sample, 25 μL of ethanol, 25 μL of water and 300 μL of acetonitrile containing the internal standard was added. For the water sample, 25 μL of ethanol, 25 μL of octanol and 300 μL of acetonitrile containing the internal standard [60 mL of acetonitrile add 6 μL of PNP (1000 μg/mL)] was added. For the calibrators 25 μL of octanol, 25 μL of water and 300 μL of acetonitrile containing the internal standard was added. The sample was vortexed for 10 seconds. Two hundred μL of the organic layer were transferred into a clean deactivated autosampler vial.
A 1/concentration weighted linear regression was used for the quantitation of C10. All integration were performed with peak areas using Analyst version 1.3, Applied Biosystems. For C10, peak area ratios analyte to internal standard PNP were used for all quantitation.

[3] = test system: Saccharomyces cerevisiae strain ATCC 201388; assay: MIC (NCCLS M27, YPD or synthetic defined media), haploid parental strain; type: cell-based; details: Saccharomyces cerevisiae, read-out: MIC
Description: The haploid Saccharomyces cerevisiae strain ATCC 201388 was used in the selection of C10 resistant mutants. Spontaneous and EMS-induced resistant mutants were isolated from YPD agar plates containing 4×, 8×, 16×MIC of C10. All minimal inhibitory concentrations (MIC) were determined using NCCLS protocol M27 with the exception of using YPD or synthetic defined media. All yeast and molecular genetic manipulations were essentially performed as described by Guthrie C., et al., Methods in Enzymology, 350: Part B, (2002).
(§1) The minimal inhibitory concentration (MIC) was essentially performed following the NCCLS guidelines outlined in the M27 protocol with the exception of using YPD or synthetic defined media (SDM).

[4] = test system: S. cerevisiae ATCC201388 bearing pRS425 or CDC60 on pRS425; assay: MIC with over-expression of wild type CDC60; type: cell-based, Saccharomyces cerevisiae; details: for MIC: Saccharomyces cerevisiae
Excerpt: as §1
A 4.0 kb BamH I-Sal I DNA fragment containing the entire CDC60 open reading frame (ORF) and 700 bp of upstream sequence was amplified using KOD DNA polymerase, S. cerevisiae genomic DNA (Novagen, Madison, Wis., USA), and the primers GAGGGATCCGGTTAGTTTTAGTTCGCGAGTGACCTG and GAGGTCGACGATTTCTGGTTGCTGTTTATTGATCTT (Operon, Alameda, Calif., USA). This DNA fragment was then cloned into the […] multi-copy plasmid pRS425, and transformed into S. cerevisiae ATCC201388 (Gietz, R D et al., Methods in Enzymology 305: 87-96 (2002)).

For `OB1OCc2cc(F)ccc21` [C10, 5-fluorobenzo[c][1,2]oxaborol-1(3H)-ol], the MIC (19 test strains of fungi) was 0.25 to 2 µg/mL (≈ 1.65 to 13.2 µM), the “solubility in octanol and water, in words” value ([1]; over the concentration range tested) was “very good” and the “Solubility, Octanol Visual” value ([1]; targeted conc 0.800 μg/mL) was “Clear”. The “Solubility, Water Visual” value ([1]; targeted conc 0.800 μg/mL) was “Clear”, the “Solubility, Octanol Visual” value ([1]; targeted conc 4.00 μg/mL) was “Clear” and the “Solubility, Water Visual” value ([1]; targeted conc 4.00 μg/mL) was “Clear”. For the same molecule, the “Solubility, Octanol Visual” value ([1]; targeted conc 20.0 μg/mL) was “Clear”, the “Solubility, Water Visual” value ([1]; targeted conc 20.0 μg/mL) was “Clear” and the “Solubility, Octanol Visual” value ([1]; targeted conc 100 μg/mL) was “Clear”. For the same molecule, the “Solubility, Water Visual” value ([1]; targeted conc 100 μg/mL) was “Clear”, the “stability in pure water and octanol, in words” value ([2]; 24 h, without continuous mixing) was “stable over 24 h” and the “Percent Remaining 24 h versus 0 g” value ([2]; Octanol) was 93%. For the same molecule, the “Mean” value ([2]; Octanol, 0 h) was 115 µg/mL, the “Mean” value ([2]; Octanol, 24 h) was 107 µg/mL and the “Percent Remaining 24 h versus 0 g” value ([2]; Water) was 115%. For the same molecule, the “Mean” value ([2]; Water, 0 h) was 82.5 µg/mL, the “Mean” value ([2]; Water, 24 h) was 95.0 µg/mL and the MIC ([3]; ATCC201388, Table 1, haploid strain ATCC201388) was 0.5 µg/mL (≈ 3.29 µM). The MIC ([3]; ATCC201388, Table 2, ATCC201388) was 0.5 µg/mL (≈ 3.29 µM), the “increase in resistance (MIC) with additional copies of CDC60” value ([4]; CDC60 on multi-copy 2 μM plasmid versus same strain bearing pRS425) was “eight times more resistant; also recorded: eight times higher; also recorded: eight-fold” and the MIC ([4]; ATCC201388, CDC60 on pRS425 (20 copies)) was 1 µg/mL (≈ 6.58 µM). For the same molecule, the MIC ([4]; ATCC201388, pRS425 Plasmid control) was 0.125 µg/mL (≈ 0.823 µM).
